Like-named read-outs stand apart in the source and are kept apart here.
Tested on: CFTR-Y122X
Assay: CFTR-Y122X assay (dual reporter isogenic Hek293 cell lines, Renilla luminescence readthrough)
Format: cell-based
Settings: Homo sapiens
Text: Activity of compounds of the present invention was examined in recombinant, dual reporter isogenic Hek293 cell lines (“CFTR-Y122X assay”). The engineered reporter constructs contained the 18 bp sequence stretch corresponding to a common Y122X PTC mutation in CFTR class I mutant patients (see Sermet-Gaudelus, BMC Medicine, 2007, 5(5)). Instead of a tyrosine (Y) in position 122 of the CFTR protein a TGA stop codon interrupts the open reading frame (Y122X) of the corresponding mRNA. This TGA stop codon triplet (followed by the pyrimidine base cytosine) is permissive to aminoglycoside mediated translational readthrough which served as positive control for high throughput screening. A corresponding TAA stop codon variant and a wildtype non mutated construct was used for confirmation and counter screening. The CFTR sequence was sandwiched between an eGFP reporter, and a triple myc tag sequence fused to a full length Renilla reporter. All sequences, including an intron containing one positioned pre-eGFP (b-globin intron) were cloned in frame. The corresponding expression constructs were stably expressed in the isogenic HEK-R4 cell host (Invitrogen Incorp.) and selected by blasticidin resistance. The isogenic integration of the construct minimizes gene dose effects and improves assay reproducibility. Stably integrated single cell derived clones were selected and characterized for aminoglycoside mediated readthrough. […] Readthrough of Y122X accumulates an intracellular localized fusion protein approximately 65.5 kDa in size as controlled by western blot analysis and immunofluorescence using an anti-renilla antibody. The eGFP reporter pre-PTC mutation serves as visual control for genetic stability of the screening clones and minimizes protein degradation of small fusion protein amounts. In the assay, compound concentration was 10 μM. In miniaturized 1536 well format 2000 cells were dispensed in 4 μl/well and incubated for 24 h at 37° C., 5% CO2. 40 nl compounds were placed on the cells with control wells containing 1 ul Paramomycin and 14.4 mM final concentration. Compounds were incubated for 24 h. Renilla Glo substrate (2.5 ul) was added and plates were centrifuged and processed for luminescence measurement using various readers. Activity calculation was done using the equation: A1 (%)=100*(S−NC)/(AC−NC) where AC, NC and S correspond to active controls (injection of Stimulation buffer=100% stimulation), neutral controls (buffer injection which Iloprost EC10) and screening samples (S). NC corresponds to 0% activity whereas AC is 100% activity (14 mM paromomycin). False positive artefacts were removed in confirmation and validation screening using the same assay format followed by counterscreening using the respective wildtype construct (w/o PTC mutation) cell model. Compounds were tested up to 100 μM compound concentration.

[1] = HEK293, nonsense mutation suppression, 100% = 14 mM paromomycin, 24 h incubation, tested up to 100 μM, read-out: Amax [%]
[2] = HEK293, nonsense mutation suppression, 24 h incubation
[3] = HEK293, at the above dose ranges (up to 100 μM), read-out: suppression, % of paromomycin reference activity

SMILES | Emax [1] | AC50 [2] | Emax [3] | Emax at 12.5 µM (HEK293, measured at 12.5 μM compound concentration (footnote b), read-out: Amax [%]: % nonsense mutation suppression relative to paromomycin reference activity) | Emax (HEK293, 24 h, read-out: Amax [%])
CCCCCCCc1nc2c(c(=O)c3ccccc3n2C)c(=O)n1-c1ccccc1 [Example 1.48, 2-heptyl-10-methyl-3-phenylpyrimido[4,5-b]quinoline-4,5(3H,10H)-dione] | 235% | 11.7 µM | – | – | –
CCCCCc1nc2c(c(=O)c3ccccc3n2C)c(=O)n1-c1cc(C)cc(C)c1 [Example 1.34, 3-(3,5-dimethylphenyl)-10-methyl-2-pentylpyrimido[4,5-b]quinoline-4,5(3H,10H)-dione] | 16% | 3.2 µM | – | – | –
Cn1c2ccccc2c(=O)c2c(=O)n(C3CCCC3)c(-c3cccs3)nc21 [Example 2.43, 3-cyclopentyl-10-methyl-2-(thiophen-2-yl)pyrimido[4,5-b]quinoline-4,5(3H,10H)-dione] | 17% | 14.7 µM | – | – | –
CCSc1nc2[nH]c3ccccc3c(=O)c2c(=O)n1-c1ccccc1 [Example 3.1, 2-(ethylthio)-3-phenylpyrimido[4,5-b]quinoline-4,5(3H,10H)-dione] | 65% | 5.8 µM | – | – | –
Cn1c2ccccc2c(=O)c2c(=O)n(C3CCCCC3)c(-c3cccc([N+](=O)[O-])c3)nc21 [Example 2.19, 3-cyclohexyl-10-methyl-2-(3-nitrophenyl)pyrimido[4,5-b]quinoline-4,5(3H,10H)-dione] | 248% | 11.6 µM | – | – | –
CCCc1nc2c(c(=O)c3ccccc3n2C)c(=O)n1-c1ccccc1 [Example 1.30, 10-methyl-3-phenyl-2-propylpyrimido[4,5-b]quinoline-4,5(3H,10H)-dione] | 262% | 6.5 µM | – | – | –
COc1ccc(-c2nc3c(c(=O)c4ccccc4n3C)c(=O)n2C2CCCCCC2)cc1 [Example 2.47, 3-cycloheptyl-2-(4-methoxyphenyl)-10-methylpyrimido[4,5-b]quinoline-4,5(3H,10H)-dione] | 10% | 3.1 µM | – | – | –
Cn1c2ccccc2c(=O)c2c(=O)n(C3CCCCCC3)c(C3CCCCC3)nc21 [3-cycloheptyl-2-cyclohexyl-10-methylpyrimido[4,5-b]quinoline-4,5(3H,10H)-dione] | – | – | < 5% | – | –
CC(C)c1nc2c(c(=O)c3cc(Cl)ccc3n2C)c(=O)n1C1CCCC1 [Example 2.11, 7-chloro-3-cyclopentyl-2-isopropyl-10-methylpyrimido[4,5-b]quinoline-4,5(3H,10H)-dione] | 192% | 10.7 µM | – | – | –
Cn1c2ccccc2c(=O)c2c(=O)n(C3CCCCC3)c(-c3cccc(Br)c3)nc21 [Example 2.30, 2-(3-bromophenyl)-3-cyclohexyl-10-methylpyrimido[4,5-b]quinoline-4,5(3H,10H)-dione] | 71% | 22.2 µM | – | – | –
CC(C)c1nc2c(c(=O)c3ccccc3n2CCO)c(=O)n1-c1ccccc1 [Example 1.42, 10-(2-hydroxyethyl)-2-isopropyl-3-phenylpyrimido[4,5-b]quinoline-4,5(3H,10H)-dione] | 117% | 15.7 µM | – | – | –
Cn1c2ccccc2c(=O)c2c(=O)n(C3CCCC3)c(-c3ccc(C(C)(C)C)cc3)nc21 [2-(4-(tert-butyl)phenyl)-3-cyclopentyl-10-methylpyrimido[4,5-b]quinoline-4,5(3H,10H)-dione] | – | – | < 5% | – | –
COc1ccccc1-n1c(C(C)C)nc2c(c(=O)c3ccccc3n2C)c1=O [Example 1.19, 2-isopropyl-3-(2-methoxyphenyl)-10-methylpyrimido[4,5-b]quinoline-4,5(3H,10H)-dione] | – | – | – | 16% | –
CC(C)Cn1c2ccccc2c(=O)c2c(=O)n(-c3ccccc3)c(C(C)C)nc21 [10-isobutyl-2-isopropyl-3-phenylpyrimido[4,5-b]quinoline-4,5(3H,10H)-dione] | – | – | < 5% | – | –
Cn1c2ccccc2c(=O)c2c(=O)n(C3CCCCCC3)c(-c3ccc(F)cc3)nc21 [3-cycloheptyl-2-(4-fluorophenyl)-10-methylpyrimido[4,5-b]quinoline-4,5(3H,10H)-dione] | – | – | < 5% | – | –
CC(C)c1nc2c(c(=O)c3cc(Cl)ccc3n2C)c(=O)n1-c1ccccc1 [Example 1.24, 7-chloro-2-isopropyl-10-methyl-3-phenylpyrimido[4,5-b]quinoline-4,5(3H,10H)-dione] | 140% | 11.5 µM | – | – | –
CC1CC(c2nc3c(c(=O)c4ccccc4n3C)c(=O)n2-c2ccccc2)C1 (centres unmarked) [Example 1.6, 10-methyl-2-(3-methylcyclobutyl)-3-phenylpyrimido[4,5-b]quinoline-4,5(3H,10H)-dione] | 165% | 6.1 µM | – | – | –
Cn1c2ccccc2c(=O)c2c(=O)n(-c3ccccc3)c(C3CCCC3)nc21 [Example 1.10, 2-cyclopentyl-10-methyl-3-phenylpyrimido[4,5-b]quinoline-4,5(3H,10H)-dione] | 277% | 11 µM | – | – | –
Cn1c2ccccc2c(=O)c2c(=O)n(-c3cccc(Cl)c3)c(C3CCCCC3)nc21 [3-(3-chlorophenyl)-2-cyclohexyl-10-methylpyrimido[4,5-b]quinoline-4,5(3H,10H)-dione] | – | – | < 5% | – | –
CC(C)c1nc2c(c(=O)c3ccccc3n2C)c(=O)n1-c1cccc(Cl)c1 [Example 1.21, 3-(3-chlorophenyl)-2-isopropyl-10-methylpyrimido[4,5-b]quinoline-4,5(3H,10H)-dione] | 167% | 10.2 µM | – | – | –
CC(C)c1nc2c(c(=O)c3ccccc3n2C)c(=O)n1-c1ccccc1F [Example 1.15, 3-(2-fluorophenyl)-2-isopropyl-10-methylpyrimido[4,5-b]quinoline-4,5(3H,10H)-dione] | 169% | 7.8 µM | – | – | –
Cc1ccccc1-c1nc2c(c(=O)c3ccccc3n2C)c(=O)n1C1CCCC1 [Example 2.34, 3-cyclopentyl-10-methyl-2-(o-tolyl)pyrimido[4,5-b]quinoline-4,5(3H,10H)-dione] | 33% | 8.4 µM | – | – | –
CC(C)c1nc2[nH]c3ccccc3c(=O)c2c(=O)n1C1CCCC1 [Example 2.2, 3-cyclopentyl-2-isopropylpyrimido[4,5-b]quinoline-4,5(3H,10H)-dione] | 235% | 2.1 µM | – | – | –
CC(C)c1nc2c(c(=O)c3ccccc3n2C)c(=O)n1-c1ccccc1Cl [Example 1.16, 3-(2-chlorophenyl)-2-isopropyl-10-methylpyrimido[4,5-b]quinoline-4,5(3H,10H)-dione] | 200% | 9.3 µM | – | – | –
Cn1c2ccccc2c(=O)c2c(=O)n(-c3ccccc3)c(C3CCC3)nc21 [Example 1.1, 2-cyclobutyl-10-methyl-3-phenylpyrimido[4,5-b]quinoline-4,5(3H,10H)-dione] | – | 1.3 µM | – | – | 258%
CCC(CC)c1nc2c(c(=O)c3ccccc3n2C)c(=O)n1-c1ccccc1 [Example 1.9, 10-methyl-2-(pentan-3-yl)-3-phenylpyrimido[4,5-b]quinoline-4,5(3H,10H)-dione] | 200% | 11.7 µM | – | – | –
NCCn1c2ccccc2c(=O)c2c(=O)n(-c3ccccc3)c(C3CCC3)nc21 [Example 1.37, 10-(2-aminoethyl)-2-cyclobutyl-3-phenylpyrimido[4,5-b]quinoline-4,5(3H,10H)-dione] | 348% | 0.9 µM | – | – | –
CC(C)c1nc2c(c(=O)c3ccccc3n2C)c(=O)n1-c1ccccc1 [Example 1.28, 2-isopropyl-10-methyl-3-phenylpyrimido[4,5-b]quinoline-4,5(3H,10H)-dione] | 361% | 7.6 µM | – | – | –
